Measurements from ChEMBL document CHEMBL1201862, “PubChem BioAssay data set” (2004).
The source made the active and inactive calls.

How the values were obtained:
X-box-binding protein 1 = X-box-binding protein 1 (Homo sapiens, UniProt P17861); type: functional, Cricetulus griseus;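 note: confirmatory dose-response counter-screen serving a CHOP assay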
Hexokinase HKDC1 = biological target: T1, Hexokinase HKDC1 (Homo sapiens, UniProt Q2TB90); assay: HKDC1 hexokinase inhibitors, dose response, biochemical, W721R variant (AID 504729); type: functional
T1 sequence (Q2TB90 whole entry): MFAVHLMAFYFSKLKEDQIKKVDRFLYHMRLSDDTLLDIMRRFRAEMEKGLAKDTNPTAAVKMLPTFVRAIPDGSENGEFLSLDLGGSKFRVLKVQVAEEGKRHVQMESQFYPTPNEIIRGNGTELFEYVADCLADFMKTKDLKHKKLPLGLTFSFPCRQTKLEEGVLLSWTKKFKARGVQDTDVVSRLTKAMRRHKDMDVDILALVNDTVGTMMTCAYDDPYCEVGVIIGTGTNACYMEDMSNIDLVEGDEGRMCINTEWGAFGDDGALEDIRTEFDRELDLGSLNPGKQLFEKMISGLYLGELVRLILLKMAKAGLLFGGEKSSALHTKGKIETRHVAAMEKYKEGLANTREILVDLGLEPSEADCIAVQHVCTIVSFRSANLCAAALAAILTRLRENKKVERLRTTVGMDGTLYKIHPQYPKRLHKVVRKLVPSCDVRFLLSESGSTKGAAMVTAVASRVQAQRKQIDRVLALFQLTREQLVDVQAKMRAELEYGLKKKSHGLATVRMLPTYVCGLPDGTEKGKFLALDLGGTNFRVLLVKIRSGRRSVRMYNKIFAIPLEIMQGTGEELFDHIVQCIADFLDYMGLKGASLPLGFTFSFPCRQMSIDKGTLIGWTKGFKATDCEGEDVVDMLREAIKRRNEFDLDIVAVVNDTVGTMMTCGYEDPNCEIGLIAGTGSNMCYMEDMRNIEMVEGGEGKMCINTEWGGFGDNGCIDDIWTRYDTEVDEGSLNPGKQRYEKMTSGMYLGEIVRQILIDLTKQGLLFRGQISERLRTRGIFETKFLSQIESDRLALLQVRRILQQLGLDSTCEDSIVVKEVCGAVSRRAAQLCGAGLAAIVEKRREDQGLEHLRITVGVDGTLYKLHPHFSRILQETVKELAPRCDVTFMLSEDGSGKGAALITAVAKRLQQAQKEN

[1] = Luminescence Cell-Based Dose Confirmation HTS to Identify Activators of 5'UTR Stem-Loop Driven Alpha-Synuclein mRNA Translation in H4 Neuroglioblastoma Cells. [Related pubchem assays: 1829 (Project Summary), 1814 (Primary HTS)]; type: functional
[2] = Luminescence Cell-Based Dose Response HTS to Identify Activators of Luciferase Translation or Activity in H4-C Neuroglioblastoma Cells. [Related pubchem assays: 1829 (Project Summary), 1814 (Primary HTS)]; type: functional
[3] = Luminescence Cell-Based Dose Response HTS to Identify Activators of 5'UTR Stem-Loop Driven Prion Protein mRNA Translation in H4-C Neuroglioblastoma Cells. [Related pubchem assays: 1829 (Project Summary), 1814 (Primary HTS)]; type: functional
H4 = assay: Luminescence Cell-Based Dose Response HTS to Identify Activators of 5'UTR Stem-Loop Driven Prion Protein mRNA Translation in H4 Neuroglioblastoma Cells. [Related pubchem assays: 1829 (Project Summary), 1814 (Primary HTS)]; type: functional; settings: Homo sapiens
[4] = Luminescence Cell-Based Dose Retest to Confirm Activators of 5'UTR Stem-Loop Driven Alpha-Synuclein mRNA Translation in H4 Neuroglioblastoma Cells. [Related pubchem assays (depositor defined):AID1813, AID1829]; type: functional
[5] = Luminescence Cell-Based Dose Response HTS to Identify Activators of Luciferase Translation or Activity in H4 […] Cells. [Related pubchem assays: 1829 (Project Summary), 1814 (Primary HTS)]; type: functional
[6] = cytotoxicity in HEK-293T cells, dose response, cytotoxicity control for TCR NF-kB inhibitor project, luminescence, T-cell screen hits (AID 489026); type: functional, cell-based;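 note: cells exposed to compound about 14 hours before the viability readout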
[7] = Luminescence-based counterscreen assay for KLF5 inhibitors: dose response cell-based high throughput screening assay to identify cytotoxic compounds using the IEC-6 intestinal epithelial cell line. [Related pubchem assays: 1700 (Primary screen.), 1834 (Confirmation screen.), 1858 (Summary AID.), 1905 (Counterscreen.)]; type: functional
[8] = inhibitors of HIV Env-driven cell fusion, dose response, cherry-pick (AID 652057); type: functional, cell-based
[9] = off-target signal loss in HeLa-CEM21 co-culture – HeLa F-luc CTL cells, cherry-picked, counter-screen for HIV-1 Env fusion inhibitor project, dose response (AID 652040); type: functional, cell-based;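 note: potency for signal decrease marking cytotoxic or nonspecific inhibition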
[10] = inhibition of ADP-Glo detection reagents, dose response, artefact control for CDK5 inhibitor project, biochemical, luminescence, cherry-picked samples, set 2 (AID 504546); type: functional
[11] = ZM109 Env clade C HIV-1 fusion inhibitors, dose response, HeLa effector, CEM target cells, luciferase, cherry-pick (AID 652058); type: functional, cell-based
[12] = Luminescence Cell-Based Dose Confirmation HTS to Identify Inhibitors of Platelet Dense Granule Release. [Related pubchem assays: 1663 (Primary HTS), 1678 (Summary of Project)]; type: functional
[13] = biological target: Cyclin-dependent kinase 5/CDK5 activator 1 (Homo sapiens, UniProt Q00535); assay: CDK5/p35 kinase inhibitors, dose response, biochemical, cherry-picked samples, set 2 (AID 504545)
[14] = biological target: Luciferin 4-monooxygenase (Photinus pyralis, UniProt P08659); assay: firefly luciferase enzyme inhibitors, dose response, biochemical, luminescence (AID 1891)
[15] = CEM21 lymphoblast cell cytotoxicity, dose response, cytotoxicity control for viral fusion inhibitor project, CellTiter-Glo luminescence, cherry-picked (AID 652042); type: functional, cell-based;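 note: potency for signal decrease meaning cytotoxicity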
[16] = inhibitors of clade B AD8 Env fusion, dose response, cell-based, cherry-pick (AID 652062); type: functional;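 note: luciferase signal from cell-cell fusion driven by HIV-1 clade B AD8 Env; potency is for inhibitors of fusion seen as a drop in luminescence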
[17] = biological target: T2, Voltage-dependent T-type calcium channel subunit alpha-1H (Homo sapiens, UniProt O95180); assay: Inhibitors of T-Type Calcium Channels. [Related pubchem assays (depositor defined):AID449739, AID463087, AID489005, AID493041, AID504579, AID504584, AID504619, AID504628]; type: functional
[18] = biological target: T2, Voltage-dependent T-type calcium channel subunit alpha-1H; type: functional
[19] = biological target: NACHT, LRR and PYD domains-containing protein 3 (Homo sapiens, UniProt Q96P20); assay: NALP3 inhibitors in yeast, dose response, luminescent (AID 488799); type: functional
[20] = biological target: T3, Orexin/Hypocretin receptor type 1 (Homo sapiens, UniProt O43613); assay: (§1) Fluorescence-based cell-based high throughput dose response assay for antagonists of the orexin 1 receptor (OX1R; HCRTR1). [Related pubchem assays (depositor defined):AID434989, AID435008, AID463079, AID485270, AID492963, AID492964, AID492965, AID493232, AID504717, AID504718]; type: functional
T3 sequence (O43613 whole entry): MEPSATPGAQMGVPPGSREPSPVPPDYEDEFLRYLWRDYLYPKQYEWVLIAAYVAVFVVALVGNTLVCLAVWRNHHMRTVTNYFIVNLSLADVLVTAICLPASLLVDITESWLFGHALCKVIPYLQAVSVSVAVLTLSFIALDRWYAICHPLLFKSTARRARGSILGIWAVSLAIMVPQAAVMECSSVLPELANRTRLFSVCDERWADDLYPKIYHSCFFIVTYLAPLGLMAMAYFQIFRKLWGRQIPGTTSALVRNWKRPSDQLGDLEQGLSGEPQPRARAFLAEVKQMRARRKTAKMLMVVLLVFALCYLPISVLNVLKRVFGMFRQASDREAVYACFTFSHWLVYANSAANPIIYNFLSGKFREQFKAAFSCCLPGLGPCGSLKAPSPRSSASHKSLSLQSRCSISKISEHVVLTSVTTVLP

Cytochrome P450 1A2 = biological target: T4, Cytochrome P450 1A2 (Homo sapiens, UniProt P05177);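 note: PubChem cytochrome P450 panel assay, CYP1A2 panel member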
T4 sequence (P05177 whole entry): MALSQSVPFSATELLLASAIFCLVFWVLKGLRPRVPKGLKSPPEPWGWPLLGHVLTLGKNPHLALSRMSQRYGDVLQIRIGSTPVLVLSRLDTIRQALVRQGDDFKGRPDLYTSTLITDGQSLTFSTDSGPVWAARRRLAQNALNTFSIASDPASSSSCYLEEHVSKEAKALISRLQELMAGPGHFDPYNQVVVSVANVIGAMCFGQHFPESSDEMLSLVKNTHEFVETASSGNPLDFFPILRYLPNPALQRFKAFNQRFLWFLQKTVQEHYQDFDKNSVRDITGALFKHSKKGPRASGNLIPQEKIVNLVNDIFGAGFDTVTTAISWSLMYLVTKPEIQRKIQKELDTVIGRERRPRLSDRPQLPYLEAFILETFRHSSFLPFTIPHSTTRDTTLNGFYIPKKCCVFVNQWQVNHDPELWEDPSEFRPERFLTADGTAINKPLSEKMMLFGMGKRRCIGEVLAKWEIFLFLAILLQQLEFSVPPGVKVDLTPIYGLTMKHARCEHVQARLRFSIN

[21] = biological target: T3, Orexin/Hypocretin receptor type 1; assay: as §1, with “Homogeneous Time Resolved Fluorescence (HTRF)-based” for “Fluorescence-based”; type: functional
[22] = (§2) Counterscreen for antagonists of the orexin 1 receptor (OX1R; HCRTR1): Fluorescence-based cell-based high throughput dose response assay to identify antagonists of the parental CHO cell line. [Related pubchem assays (depositor defined):AID434989, AID435008, AID463079, AID485270, AID492963, AID492964, AID492965, AID493232, AID504699, AID504701]; type: functional
CHO-K1 = assay: as §2, with “Homogeneous time resolved fluorescence (HTRF)-based” for “Fluorescence-based”, “cell-based” for “cell-based high throughput”, “CHO-K1” for “CHO”; type: functional; settings: Cricetulus griseus;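 note: potency for inhibition of ATP-stimulated IP1 production as antagonists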
[23] = biological target: T5, Scavenger receptor class B member 1 (Mus musculus, UniProt Q61009); assay: inhibitors of SR-BI mediated HDL lipid uptake, dose response, ldlA[mSR-BI] cells, fluorescence, cherry pick (AID 493194); type: functional, cell-based;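 note: cellular uptake of fluorescent DiI-labeled HDL measured as cell fluorescence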
T5 sequence (Q61009 whole entry): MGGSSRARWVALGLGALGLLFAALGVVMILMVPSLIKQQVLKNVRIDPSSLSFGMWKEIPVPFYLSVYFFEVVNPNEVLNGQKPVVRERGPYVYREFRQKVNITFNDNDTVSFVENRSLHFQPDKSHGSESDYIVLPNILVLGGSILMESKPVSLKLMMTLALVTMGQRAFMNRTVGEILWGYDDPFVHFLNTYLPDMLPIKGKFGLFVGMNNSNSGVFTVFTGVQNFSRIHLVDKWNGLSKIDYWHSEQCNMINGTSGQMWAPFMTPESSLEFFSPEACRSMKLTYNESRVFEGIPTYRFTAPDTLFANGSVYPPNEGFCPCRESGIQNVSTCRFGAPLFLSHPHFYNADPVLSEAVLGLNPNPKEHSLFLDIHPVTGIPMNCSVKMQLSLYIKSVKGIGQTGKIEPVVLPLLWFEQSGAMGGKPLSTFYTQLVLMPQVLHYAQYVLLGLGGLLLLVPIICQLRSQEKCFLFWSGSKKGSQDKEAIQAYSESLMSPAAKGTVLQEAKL

[24] = biological target: Melanin-concentrating hormone receptor 1 (Homo sapiens, UniProt Q99705); assay: Late-stage fluorescence-based counterscreen for antagonists of the G-protein coupled receptor 7 (GPR7): cell-based dose response assay to identify antagonists of the melanin-concentrating hormone receptor 1 (MCHR1). [Related pubchem assays (depositor defined):AID1861, AID1880, AID1952, AID2148, AID2251, AID2257, AID485339]; type: functional;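 note: stimulated with 30 nM MCH peptide agonist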
[25] = biological target: T6, Neuropeptides B/W receptor type 1 (Homo sapiens, UniProt P48145); assay: GPR7 antagonist potency, late-stage follow-up, cell-based, fluorescence, dose response (AID 463251); type: functional
T6 sequence (P48145 whole entry): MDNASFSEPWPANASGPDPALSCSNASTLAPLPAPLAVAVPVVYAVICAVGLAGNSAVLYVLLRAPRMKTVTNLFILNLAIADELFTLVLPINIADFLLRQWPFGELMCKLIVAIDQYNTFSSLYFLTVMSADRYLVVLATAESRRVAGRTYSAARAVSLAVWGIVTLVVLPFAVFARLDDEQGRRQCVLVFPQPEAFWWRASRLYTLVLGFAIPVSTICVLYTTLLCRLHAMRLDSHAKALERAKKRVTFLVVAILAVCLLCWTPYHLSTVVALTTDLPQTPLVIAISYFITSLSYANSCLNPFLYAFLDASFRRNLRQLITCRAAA

T2 sequence (O95180 whole entry): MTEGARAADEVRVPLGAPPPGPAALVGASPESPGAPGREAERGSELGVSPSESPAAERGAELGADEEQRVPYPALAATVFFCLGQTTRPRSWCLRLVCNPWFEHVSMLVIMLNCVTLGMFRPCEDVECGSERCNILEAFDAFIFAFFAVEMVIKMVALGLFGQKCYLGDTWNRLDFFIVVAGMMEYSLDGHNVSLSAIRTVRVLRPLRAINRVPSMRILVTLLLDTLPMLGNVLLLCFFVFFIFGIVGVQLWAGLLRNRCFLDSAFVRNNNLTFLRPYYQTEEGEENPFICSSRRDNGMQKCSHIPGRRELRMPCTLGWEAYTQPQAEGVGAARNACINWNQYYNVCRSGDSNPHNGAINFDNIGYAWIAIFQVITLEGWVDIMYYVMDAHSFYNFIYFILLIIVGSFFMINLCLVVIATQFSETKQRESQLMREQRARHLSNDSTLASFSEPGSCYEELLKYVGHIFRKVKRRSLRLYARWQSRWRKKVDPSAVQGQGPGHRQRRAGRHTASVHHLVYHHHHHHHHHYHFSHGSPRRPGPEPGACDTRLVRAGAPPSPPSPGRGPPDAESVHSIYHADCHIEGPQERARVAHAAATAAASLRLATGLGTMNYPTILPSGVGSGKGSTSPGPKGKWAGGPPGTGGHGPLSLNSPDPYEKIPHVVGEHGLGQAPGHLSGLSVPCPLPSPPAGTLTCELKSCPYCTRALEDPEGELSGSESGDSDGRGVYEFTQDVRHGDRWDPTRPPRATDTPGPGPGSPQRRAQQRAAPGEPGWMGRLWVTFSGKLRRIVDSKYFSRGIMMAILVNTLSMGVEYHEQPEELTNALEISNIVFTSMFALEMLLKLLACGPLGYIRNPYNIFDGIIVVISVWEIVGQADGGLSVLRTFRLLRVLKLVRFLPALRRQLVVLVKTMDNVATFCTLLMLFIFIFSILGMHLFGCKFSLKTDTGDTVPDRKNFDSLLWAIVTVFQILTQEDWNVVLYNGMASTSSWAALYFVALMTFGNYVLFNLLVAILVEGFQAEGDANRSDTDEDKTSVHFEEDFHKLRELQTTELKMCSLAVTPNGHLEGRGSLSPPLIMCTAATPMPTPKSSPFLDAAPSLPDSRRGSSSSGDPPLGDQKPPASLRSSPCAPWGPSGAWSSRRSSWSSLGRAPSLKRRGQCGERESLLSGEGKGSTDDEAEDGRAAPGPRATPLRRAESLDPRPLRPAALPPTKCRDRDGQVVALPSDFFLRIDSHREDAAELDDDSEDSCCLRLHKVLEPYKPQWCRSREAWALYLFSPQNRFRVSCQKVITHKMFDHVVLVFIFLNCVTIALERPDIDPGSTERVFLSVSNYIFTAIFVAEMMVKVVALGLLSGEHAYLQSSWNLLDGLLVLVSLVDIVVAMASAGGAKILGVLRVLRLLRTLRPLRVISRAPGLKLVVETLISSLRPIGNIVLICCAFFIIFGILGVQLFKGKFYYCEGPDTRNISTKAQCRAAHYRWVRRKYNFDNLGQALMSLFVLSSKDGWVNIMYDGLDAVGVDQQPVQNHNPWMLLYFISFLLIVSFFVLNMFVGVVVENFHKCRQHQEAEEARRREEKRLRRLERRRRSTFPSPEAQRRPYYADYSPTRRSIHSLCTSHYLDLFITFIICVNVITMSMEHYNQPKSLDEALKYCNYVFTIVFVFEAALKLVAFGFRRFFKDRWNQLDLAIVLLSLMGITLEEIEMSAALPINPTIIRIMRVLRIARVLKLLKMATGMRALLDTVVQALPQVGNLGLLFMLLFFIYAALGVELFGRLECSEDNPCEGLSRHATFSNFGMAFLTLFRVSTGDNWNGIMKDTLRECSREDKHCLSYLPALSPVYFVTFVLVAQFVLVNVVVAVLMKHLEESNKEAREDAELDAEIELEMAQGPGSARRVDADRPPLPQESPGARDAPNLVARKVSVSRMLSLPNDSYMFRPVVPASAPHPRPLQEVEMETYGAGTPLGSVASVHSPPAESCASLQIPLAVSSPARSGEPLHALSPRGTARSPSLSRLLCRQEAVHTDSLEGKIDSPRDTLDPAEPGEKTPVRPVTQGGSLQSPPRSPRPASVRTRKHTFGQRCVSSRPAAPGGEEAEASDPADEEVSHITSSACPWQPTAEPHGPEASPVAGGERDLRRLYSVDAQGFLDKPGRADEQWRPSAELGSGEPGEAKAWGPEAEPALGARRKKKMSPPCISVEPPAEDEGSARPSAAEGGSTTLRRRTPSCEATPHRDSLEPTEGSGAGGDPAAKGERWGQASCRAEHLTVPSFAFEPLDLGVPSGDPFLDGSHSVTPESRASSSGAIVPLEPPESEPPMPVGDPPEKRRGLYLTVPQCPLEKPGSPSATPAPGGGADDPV
Sequence of NACHT, LRR and PYD domains-containing protein 3 (Q96P20 whole entry, the tested form may be a part): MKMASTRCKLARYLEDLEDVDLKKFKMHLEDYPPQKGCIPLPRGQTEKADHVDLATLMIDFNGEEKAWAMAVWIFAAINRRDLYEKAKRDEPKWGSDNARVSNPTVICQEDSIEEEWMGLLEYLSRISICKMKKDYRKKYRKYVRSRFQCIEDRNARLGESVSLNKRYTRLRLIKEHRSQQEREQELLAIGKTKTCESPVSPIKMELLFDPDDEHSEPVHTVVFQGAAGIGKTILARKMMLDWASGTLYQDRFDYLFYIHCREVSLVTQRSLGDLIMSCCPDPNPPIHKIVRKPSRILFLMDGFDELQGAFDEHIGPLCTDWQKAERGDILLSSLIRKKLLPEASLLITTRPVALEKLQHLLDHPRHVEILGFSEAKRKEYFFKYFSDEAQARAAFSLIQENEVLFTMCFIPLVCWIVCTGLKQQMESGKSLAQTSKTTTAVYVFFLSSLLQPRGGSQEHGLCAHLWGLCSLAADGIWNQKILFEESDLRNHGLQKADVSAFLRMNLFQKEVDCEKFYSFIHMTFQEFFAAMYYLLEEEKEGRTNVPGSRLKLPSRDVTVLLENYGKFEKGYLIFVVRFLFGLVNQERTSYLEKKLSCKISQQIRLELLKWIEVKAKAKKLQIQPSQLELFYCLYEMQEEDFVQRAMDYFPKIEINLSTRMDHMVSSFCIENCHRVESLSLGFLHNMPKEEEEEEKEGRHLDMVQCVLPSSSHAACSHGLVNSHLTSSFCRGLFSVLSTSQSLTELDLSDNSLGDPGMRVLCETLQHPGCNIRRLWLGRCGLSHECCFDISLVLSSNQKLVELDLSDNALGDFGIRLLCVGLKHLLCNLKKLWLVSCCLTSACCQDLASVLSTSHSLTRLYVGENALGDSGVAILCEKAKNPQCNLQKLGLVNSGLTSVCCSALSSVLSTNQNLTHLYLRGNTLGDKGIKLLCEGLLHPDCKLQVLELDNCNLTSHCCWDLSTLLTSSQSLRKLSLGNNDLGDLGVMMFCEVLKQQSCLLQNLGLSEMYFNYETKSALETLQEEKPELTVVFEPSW
Sequence of Luciferin 4-monooxygenase (P08659 whole entry, the tested form may be a part): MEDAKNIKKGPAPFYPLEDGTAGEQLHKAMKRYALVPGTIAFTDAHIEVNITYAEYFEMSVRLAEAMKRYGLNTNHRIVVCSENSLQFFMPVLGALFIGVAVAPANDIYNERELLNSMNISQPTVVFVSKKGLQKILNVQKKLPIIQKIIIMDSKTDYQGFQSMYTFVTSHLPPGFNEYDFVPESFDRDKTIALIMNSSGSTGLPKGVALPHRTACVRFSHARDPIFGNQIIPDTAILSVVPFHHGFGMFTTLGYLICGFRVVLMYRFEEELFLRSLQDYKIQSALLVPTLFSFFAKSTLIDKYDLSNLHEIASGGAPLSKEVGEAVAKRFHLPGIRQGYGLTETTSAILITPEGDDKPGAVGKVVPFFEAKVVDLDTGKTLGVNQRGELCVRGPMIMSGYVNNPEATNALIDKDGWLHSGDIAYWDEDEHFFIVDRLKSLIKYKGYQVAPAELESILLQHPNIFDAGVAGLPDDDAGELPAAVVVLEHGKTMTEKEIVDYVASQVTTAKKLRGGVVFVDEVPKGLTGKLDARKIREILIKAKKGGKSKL
Sequence of X-box-binding protein 1 (P17861 whole entry): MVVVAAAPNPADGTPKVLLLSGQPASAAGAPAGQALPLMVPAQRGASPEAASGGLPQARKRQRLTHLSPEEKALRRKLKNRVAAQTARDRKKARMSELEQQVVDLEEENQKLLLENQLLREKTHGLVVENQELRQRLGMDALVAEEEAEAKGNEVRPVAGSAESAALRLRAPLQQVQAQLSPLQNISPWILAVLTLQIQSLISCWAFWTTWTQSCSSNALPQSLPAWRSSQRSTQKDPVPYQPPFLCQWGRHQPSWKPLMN
Sequence of Cyclin-dependent kinase 5/CDK5 activator 1 (Q00535 whole entry): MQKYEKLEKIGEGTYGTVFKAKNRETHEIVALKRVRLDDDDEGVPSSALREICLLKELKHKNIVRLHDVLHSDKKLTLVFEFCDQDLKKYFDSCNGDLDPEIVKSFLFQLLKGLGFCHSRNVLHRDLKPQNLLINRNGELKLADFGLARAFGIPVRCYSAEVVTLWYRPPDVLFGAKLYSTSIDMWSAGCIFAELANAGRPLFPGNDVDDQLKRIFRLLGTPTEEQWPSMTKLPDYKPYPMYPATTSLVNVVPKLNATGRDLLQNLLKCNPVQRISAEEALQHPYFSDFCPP
Sequence of Cyclin-dependent kinase 5/CDK5 activator 1 (Q15078 whole entry, further chain): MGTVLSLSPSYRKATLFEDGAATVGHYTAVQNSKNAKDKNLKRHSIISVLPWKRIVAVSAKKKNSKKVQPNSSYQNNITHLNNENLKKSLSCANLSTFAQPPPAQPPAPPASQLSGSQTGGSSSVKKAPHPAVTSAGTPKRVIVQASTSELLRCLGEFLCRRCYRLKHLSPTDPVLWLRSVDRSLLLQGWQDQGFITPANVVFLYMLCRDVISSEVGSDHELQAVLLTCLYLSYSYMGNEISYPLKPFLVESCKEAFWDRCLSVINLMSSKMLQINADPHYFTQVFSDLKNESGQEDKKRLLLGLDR

CC(C)c1ccc(NC(=O)CSc2[nH]c(-c3ccccc3F)nc3ncnc2-3)cc1
Absolute IC50 (XBP1) (X-box-binding protein 1): 10 µM

C=CCn1c(SCC(=O)Nc2sc3c(c2C#N)CCC(C)C3)nc2cc(C(=O)O)ccc2c1=O (stereo not given)
IC50 (Hexokinase HKDC1): > 80 µM (inactive)

Cc1ccc(NC(=O)c2ccc3snnc3c2)cc1
EC50 [1]: 2.76 µM (active) | EC50 [2]: 1.88 µM (active) | EC50 [3]: 185 nM (active) | EC50 (H4): > 120 µM (not active) | EC50 [4]: 885 nM (active) | EC50 [5]: 6.57 µM (active)

Cc1ccc(C(=O)O/N=C(\N)c2ccccn2)c(Cl)c1
IC50 [6]: > 80 µM (inactive) | IC50 [7]: 20.1 µM (not active) | AC50 [8]: 3.44 µM (active) | AC50 [9]: 9.61 µM (active) | AC50 [10]: 92.9 µM (active) | AC50 [11]: 21.8 µM (active) | EC50 [12]: 1.2 µM (active) | AC50 [13]: 21.4 µM (active) | EC50 [14]: 782 nM (active) | AC50 [15]: 17.3 µM (active) | AC50 [16]: 6.87 µM (active)

O=S(=O)(NCc1ccccc1)c1ccc(S(=O)(=O)N(Cc2ccccn2)C2CCCC2)cc1
EC50 [17]: 2.35 µM (active) | EC50 [18]: 3.02 µM (active)

CC(C)NC(=O)c1c(O)c2ccccc2[nH]c1=O
IC50 [19]: 13.1 µM (active)

O=C(Nc1cccc(NC(=O)N2CCN(c3ccccc3)CC2)c1)N1CCN(c2ccccc2)CC1
IC50 [20]: 11 µM (inactive) | AC50 (Cytochrome P450 1A2): 15.8 µM (inconclusive) | IC50 [21]: 10.4 µM (inactive) | IC50 [22]: 25.1 µM (inactive) | IC50 (CHO-K1): > 66.2 µM (inactive) | AC50 [23]: 48.9 µM (active)

CC(C)c1ccc(-n2ncc(Cl)c(Oc3ccc(Cl)cc3)c2=O)cc1
IC50 [24]: 5.7 µM (active) | IC50 [25]: 1.4 µM (active)
